{"source": "patent US12319696B2", "about": "“2,6-dimethyl-n-((pyridin-4-yl)methyl)imidazo[1,2-b]pyridazin-8-amine and 2,5-dimethyl-n-[(pyridin-4-yl)methyl]pyrazolo[1,5-a]pyrimidin-7-amine derivatives for treating viral infections” (CUROVIR AB, priority 2018, dated 2025)", "key": {"[1]": {"assay": "Rat plasma protein binding (Rapid Equilibrium Dialysis)", "type": "in vitro ADME", "details": "pH 7.4, RED device, 37° C.", "method": "(§1) Plasma protein binding study was performed using a Rapid Equilibrium Dialysis (RED) device containing dialysis membrane with a molecular weight cut-off of 8,000 Daltons. Each dialysis insert contained two chambers. The red chamber was for the plasma while the white chamber was for the buffer. Test items and Control items (Warfarin and Propranolol) were prepared at a required test concentration of 10 μM in Human/Rat plasma (pH adjusted to 7.40) using 10 mM DMSO stocks (final DMSO concentration was 0.1%). 300 μL of plasma sample was added into the sample chamber. 500 μL of buffer was added into the buffer chamber. After sealing the RED device with an adhesive film, incubation was done at 37° C. with shaking at 300 rpm for 4 h. Following incubation, an aliquot of 50 μL was removed from each well (plasma and buffer side) and diluted with equal volume of opposite matrix to nullify the matrix effect and subjected for sample extraction.\n(§2) All samples were extracted by Protein Precipitation method by adding 200 μL of ice cold Acetonitrile and 50 μL of internal standard (Haloperidol at 0.1 μg/mL) solution. The tubes were vortex mixed thoroughly and centrifuged at 10000 rpm, 4° C. for 10 minutes. A clear supernatant of 200 μL of samples were submitted for LC-MS/MS analysis."}, "[2]": {"test_system": "coxsackie B virus strain 2", "assay": "Antiviral CPE inhibition assay in mammalian cell culture, Cox B2", "type": "cell-based"}, "polio virus strain 1": {"test_system": "polio virus strain 1", "assay": "organism not typed", "type": "cell-based"}, "enterovirus strain 30": {"test_system": "enterovirus strain 30", "assay": "Antiviral CPE inhibition assay in mammalian cell culture, EV30", "type": "cell-based", "details": "inhibition of viral CPE"}, "enterovirus D68": {"test_system": "enterovirus D68", "assay": "Antiviral CPE inhibition assay in mammalian cell culture, EV-D68", "type": "cell-based", "details": "Enterovirus D, EVD68, inhibition of viral CPE"}, "enterovirus strain 71": {"test_system": "enterovirus strain 71", "assay": "Antiviral CPE inhibition assay in mammalian cell culture, EV71", "type": "cell-based", "details": "inhibition of viral CPE"}, "[3]": {"test_system": "coxsackie B virus strain 1", "assay": "Antiviral CPE inhibition assay in mammalian cell culture, Cox B1", "type": "cell-based"}, "[4]": {"assay": "Metabolic stability in human liver microsomes", "type": "in vitro ADME", "details": "5 μM test item, 0.25 mg/mL microsomal protein", "method": "(§3) Metabolic stability assay was carried out using Human/Rat liver microsomes. […] Test item/Control items were incubated with Human/Rat liver microsomes with cofactors and without cofactors. The reaction mixture (100 μL) was removed at specified time period and the reaction was stopped by addition of stop solution. The samples were extracted in presence of internal standard and were analyzed using LC-MS/MS. The percent of the test/Control item remaining after specified incubation period was calculated with respect to the peak area ratio at time 0 min. […] The reaction mixture was incubated further at 37° C. for specified incubation time points (With Cofactors: 0, 15, 30, 60 and 120 min; Without Cofactors: 0 and 120 min). 100 μL incubation samples of test items and Control items at specified incubation time points were transferred to respective tubes for sample extraction. Test and Control item specimens were extracted by Protein precipitation method. A 100 μL incubation sample at each time point was added to tubes containing 200 μL of ice-cold acetonitrile and 50 μL Haloperidol solution (0.5 μg/mL). Then the tubes were vortex mixed thoroughly and centrifuged at 10000 rpm for 10 minutes at 4° C. A clear supernatant of 200 μL of samples were submitted for LC-MS/MS analysis."}, "enterovirus strain 6": {"test_system": "enterovirus strain 6", "assay": "microbe, parasite or virus in culture", "type": "cell-based", "details": "inhibition of viral CPE"}, "[5]": {"test_system": "coxsackie B virus strain 5", "assay": "Antiviral CPE inhibition assay in mammalian cell culture, Cox B5", "type": "cell-based"}, "in vivo": {"assay": "in vivo", "set-up": "species or system Sprague Dawley rats", "details": "male, Sprague Dawley, rat, po, 10 mg/kg", "method": "10 mg of the compound was weighed and transferred to graduated tube. Then 500 μL of DMA (5% v/v) was added, vortex mixed thoroughly and sonicated till test item was completely dissolved. Then 5 mL of PEG 200 (50% v/v) were added, and vortex mixed thoroughly. Thereafter, Sterile Water for Injection (SWFI) was added in small increments and vortex mixed thoroughly. Finally, the volume was made up to 10 mL with SWFI (45% v/v) to obtain a clear solution with final formulation strength of 1 mg/mL. […] Formulation was freshly prepared before the administration to animals. Adult healthy male Sprague Dawley rats aged 8-10 weeks were used for experimentation after a minimum 3 days of acclimation. Fasted animals were administered with test compound in recommended vehicle (5% DMA+50% PEG 200+45% SWFI) by oral route at a dose of 10 mg/kg body weight and at dose volume of 10 mL/kg body weight. Under mild isoflurane anesthesia, blood specimens were collected into pre-labeled tubes containing anticoagulant (K2EDTA—2 mg/mL blood) at different time points post dose."}, "CYP3A4": {"target": "T1, CYP3A4 (Homo sapiens, UniProt P08684)", "T1 construct": "from tissue; host or cells: human liver microsomes", "T1 sequence (P08684 whole entry)": "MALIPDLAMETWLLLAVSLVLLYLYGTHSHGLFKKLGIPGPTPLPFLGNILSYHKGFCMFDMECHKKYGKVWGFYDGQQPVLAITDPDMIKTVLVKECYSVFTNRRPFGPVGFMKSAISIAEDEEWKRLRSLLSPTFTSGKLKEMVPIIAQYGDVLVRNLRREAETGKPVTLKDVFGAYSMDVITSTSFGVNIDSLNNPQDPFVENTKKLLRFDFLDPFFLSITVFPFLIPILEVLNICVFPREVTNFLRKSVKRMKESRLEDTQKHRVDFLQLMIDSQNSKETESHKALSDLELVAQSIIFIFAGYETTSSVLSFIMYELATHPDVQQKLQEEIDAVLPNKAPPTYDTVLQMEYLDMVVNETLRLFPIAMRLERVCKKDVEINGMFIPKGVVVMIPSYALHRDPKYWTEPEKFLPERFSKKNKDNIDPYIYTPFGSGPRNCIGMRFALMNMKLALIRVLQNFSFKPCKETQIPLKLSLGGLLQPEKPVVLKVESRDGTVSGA", "assay": "In vitro CYP 3A4 enzyme inhibition in human liver microsomes by probe substrate method", "type": "in vitro ADME", "details": "human liver microsomes 0.5 mg/mL; probe substrate Midazolam 5 μM", "method": "In Vitro CYP 3A4 Enzyme Inhibition Study in Human Liver Microsomes by Probe Substrate Method\nIn vitro CYP3A4 enzyme inhibition assay was performed using Human liver microsomes at 0.5 mg/mL concentration. Ketoconazole was used as reference inhibitor and Midazolam was used as selective probe substrate for CYP 3A4 enzyme. Serial dilution of test/control items was prepared in potassium phosphate buffer (50 mM, pH 7.40) to obtain eight concentrations each in a 1:4 dilution pattern. The percentage of acetonitrile/DMSO was maintained at 2.5%/0.25% in 2.5× serially diluted control/test item solutions respectively. The final percentage of acetonitrile/DMSO was 1%/0.1% respectively. Intermediate solutions such as 10× working solution (5 mg/mL) of Human liver microsomal solution, 10× concentration of reference probe substrates in buffer, 5× concentrations of Cofactors (5.0 mM NADP+, 25.0 mM G-6-P, 3.0 IU/mL G-6-PDH and 10.0 mM MgCl2) were prepared in potassium phosphate buffer. The final concentration of liver microsomes in the reaction mixture was 0.5 mg/mL, cofactors was 1.0 mM NADP+, 5.0 mM G-6-P, 0.6 IU/mL G-6-PDH and 2.0 mM MgCl2. Midazolam was tested at 5 μM test concentration. 40 μL of 2.5× serially diluted test/control item solutions and 10 μL of […] liver microsomal solution were added to 96 well plate and incubated for 10 min at 37° C. with shaking condition (400 rpm) using Thermomixer. After pre incubation, 20 μL of potassium phosphate buffer, 10 μL of respective probe substrate working solution and 20 μL of cofactor mix was added."}, "[6]": {"assay": "Human plasma protein binding (Rapid Equilibrium Dialysis)", "type": "in vitro ADME", "details": "pH 7.4, RED device, 37° C.", "method": "as §1, §2"}, "[7]": {"test_system": "coxsackie B virus strain 3", "assay": "Antiviral CPE inhibition assay in mammalian cell culture, Cox B3", "type": "cell-based"}, "[8]": {"assay": "Metabolic stability in rat liver microsomes", "type": "in vitro ADME", "details": "5 μM test item, 0.25 mg/mL microsomal protein", "method": "as §3"}, "[9]": {"details": "mice; cited from earlier work"}}, "data": [{"smiles": "Cc1cc(CNc2cc(C)nc3c(-c4ccc5c(c4)c(C)nn5C)c(C)nn23)ccn1", "note": "[Ex. 4, 3-(1,3-dimethyl-1H-indazol-5-yl)-2,5-dimethyl-N-[(2-methylpyridin-4-yl)methyl]pyrazolo[1,5-a]pyrimidin-7-amine]", "values": [{"measurement": "fraction unbound at 4 h, 10 μM", "setting": "[1]", "result": 0.017}, {"measurement": "inhibition at 0.01 µM", "setting": "[2]; read-out: Inh. at 10 nM, Cox B2", "result": 100, "unit": "%"}, {"measurement": "inhibition at 0.1 µM", "setting": "[2]; read-out: Inh. at 100 nM, Cox B2", "result": 100, "unit": "%"}, {"measurement": "inhibition at 0.01 µM", "setting": "polio virus strain 1; read-out: Inh. at 10 nM, Polio 1", "result": 100, "unit": "%"}, {"measurement": "inhibition at 0.1 µM", "setting": "polio virus strain 1; read-out: Inh. at 100 nM, Polio 1", "result": 100, "unit": "%"}, {"measurement": "inhibition at 0.01 µM", "setting": "enterovirus strain 30; 10 nM, read-out: Inh. at 10 nM, EV30", "result": 100, "unit": "%"}, {"measurement": "inhibition at 0.1 µM", "setting": "enterovirus strain 30; 100 nM, read-out: Inh. at 100 nM, EV30", "result": 100, "unit": "%"}, {"measurement": "inhibition at 0.01 µM", "setting": "enterovirus D68; 10 nM, read-out: Inh. at 10 nM, EV-D68", "result": 81, "unit": "%"}, {"measurement": "inhibition at 0.1 µM", "setting": "enterovirus D68; 100 nM, read-out: Inh. at 100 nM, EV-D68", "result": 70, "unit": "%"}, {"measurement": "inhibition at 0.01 µM", "setting": "enterovirus strain 71; 10 nM, read-out: Inh. at 10 nM, EV71", "result": 76, "unit": "%"}, {"measurement": "inhibition at 0.1 µM", "setting": "enterovirus strain 71; 100 nM, read-out: Inh. at 100 nM, EV71", "result": 79, "unit": "%"}, {"measurement": "inhibition at 0.01 µM", "setting": "[3]; read-out: Inh. at 10 nM, Cox B1", "result": 100, "unit": "%"}, {"measurement": "inhibition at 0.1 µM", "setting": "[3]; read-out: Inh. at 100 nM, Cox B1", "result": 100, "unit": "%"}, {"measurement": "% remaining after incubation for 60 min, Human microsomes", "setting": "[4]", "result": 90.0, "unit": "%"}, {"measurement": "inhibition at 0.01 µM", "setting": "enterovirus strain 6; 10 nM, read-out: Inh. at 10 nM, EV6", "result": 100, "unit": "%"}, {"measurement": "inhibition at 0.1 µM", "setting": "enterovirus strain 6; 100 nM, read-out: Inh. at 100 nM, EV6", "result": 100, "unit": "%"}, {"measurement": "inhibition at 0.01 µM", "setting": "[5]; read-out: Inh. at 10 nM, Cox B5", "result": 74, "unit": "%"}, {"measurement": "inhibition at 0.1 µM", "setting": "[5]; read-out: Inh. at 100 nM, Cox B5", "result": 100, "unit": "%"}, {"measurement": "AUC(0-inf)", "setting": "in vivo", "result": "27400 ± 10100", "unit": "ng·h/mL"}, {"measurement": "AUC(0-t)", "setting": "in vivo", "result": "25200 ± 10000", "unit": "ng·h/mL"}, {"measurement": "AUCextrap", "setting": "in vivo", "result": "8.5 ± 5.2", "unit": "%"}, {"measurement": "Cmax", "setting": "in vivo", "result": "2500 ± 900", "unit": "ng/mL"}, {"measurement": "MRT last", "setting": "in vivo", "result": "6.7 ± 0.6", "unit": "h"}, {"measurement": "Tmax", "setting": "in vivo", "result": "1.3 ± 0.6", "unit": "h"}, {"measurement": "half-life", "setting": "in vivo", "result": "6.8 ± 1.5", "unit": "h"}, {"measurement": "IC50", "setting": "CYP3A4", "result": "> 25", "unit": "µM"}, {"measurement": "fraction unbound at 4 h, 10 μM", "setting": "[6]", "result": 0.015}, {"measurement": "inhibition at 0.01 µM", "setting": "[7]; read-out: Inh. at 10 nM, Cox B3", "result": 100, "unit": "%"}, {"measurement": "inhibition at 0.1 µM", "setting": "[7]; read-out: Inh. at 100 nM, Cox B3", "result": 100, "unit": "%"}, {"measurement": "% remaining after incubation for 60 min, Rat microsomes", "setting": "[8]", "result": 84.0, "unit": "%"}]}, {"smiles": "COc1ccc(-c2c(C)nn3c(NCCN4CCOCC4)cc(C)nc23)cc1OC", "note": "[T-00127-HEV1, 3-(3,4-dimethoxyphenyl)-2,5-dimethyl-N-(2-morpholinoethyl)pyrazolo[1,5-a]pyrimidin-7-amine]", "values": [{"measurement": "mortality when tested in-vivo", "setting": "[9]", "result": "induced mortality in mice"}]}]}
